Consider one compound from publication PMC7618036, “An oral heme oxygenase inhibitor targets immunosuppressive perivascular macrophages in preclinical models of cancer” (Science translational medicine, 2025).

The subject of this assay is CD8^+ T-cells in MMTV-PyMT tumors. Description: Flow cytometry of the TME of MMTV-PyMT tumors after 36 h treatment. The format is in vivo, mouse. As to conditions: single-agent therapy. How it is done:
At 36 h post treatment initiation of treatment mice were sacrificed and tumors were harvested and analyzed. (A) Schematic representing the dosing strategy. (B) The fold change of tumor growth over 36 h post initiation of treatment. (C-G) Tumors were enzyme-digested to release single cells which were analyzed for their live (7AAD^-) stromal cell composition using flow cytometry (n=5 tumors per group) (C) and CD8^+ T-cells (D). Gating strategy (left panel) and quantitation of CD8^+ T-cell subsets based on CD62L and CD44 expressions (right panel; TCM; T central memory cells, TEM; T effector memory cells, Teff; T effectors cells) (E), and the ability of the tumoral CD8^+ T-cells to secrete IFNγ post ex vivo exposure to PMA/ionomycin treatment (F). […] Scale bar is 100 µm and white arrows indicate infiltrating CD8^+ T-cells. […] Image in panel (A) was created using BioRender. Bar charts show the mean, error bars SD, and the dots show individual data points from individual tumors and mice. Gemc.; gemcitabine. * P<0.05, ** P<0.01, *** P<0.001.
MN-MCA1 sarcoma cells were orthotopically implanted into syngeneic C57Bl/6 mice for tumors. A total of 2.5 x 10^5 cells in 100 μL RPMI were injected subcutaneously into female mice. […] When tumors became palpable, volumes were measured every 2-4 days using digital caliper measurements of the long (L) and short (S) dimensions of the tumor. […]
A general note: A flow cytometer gives signals particle by particle.

Regarding `O=c1[nH]cc(F)c(=O)[nH]1` [5-FU, 5-fluorouracil], the “abundance of CD8^+ T-cells in the TME” value is given as “increase in the abundance of CD8^+ T-cells”.
